Experimental data: patent US20250195678A1, “B-LYMPHOCYTE SPECIFIC AMATOXIN ANTIBODY CONJUGATES” (Heidelberg Pharma Research GmbH, priority 2019, published 2025)

Columns and labels:
RNA-polymerase II = RNA-polymerase II (Homo sapiens, UniProt P24928); details: read-out: KD of complex with RNA-polymerase II; cited from earlier work
[1] = tested on: Nalm-6 cells (CD20-negative); experiment: 96-hour CTG cytotoxicity assay on Nalm-6; assay type: cell-based; details: 96-hour CTG assay
Experimental: (§1) FIG. 16. Results of cytotoxicity studies on (A) MEC-1-, (B) MEC-2-, (C) Raji-, (D) Nalm-6-, and (E) Ramos cell lines, respectively, using the obinutuzumab amatoxin conjugates Obi-30.1699 and Obi-30.2115 in a 96-hour CTG assay in comparison to unconjugated α-amanitin.
(§2) Results are depicted in FIG. 15.
(§3) Cytotoxic activities of the obinutuzumab amatoxin conjugates Obi-30.1699 and Obi-30.2115 were assessed in vitro on MEC-1, MEC-2, Raji, Nalm-6, and Ramos cell lines, respectively, using a 96-hour CTG assay, in comparison to unconjugated α-amanitin. Results are depicted in FIG. 16.

Raji cell line = experiment: 96-hour CTG cytotoxicity assay on Raji; assay type: cell-based, human; details: 96-hour CTG assay
Experimental: as §1, §2, §3

MEC-1 cell line = experiment: 96-hour CTG cytotoxicity assay on MEC-1; assay type: cell-based, human; details: 96-hour CTG assay
Experimental: as §1
(§4) Results are depicted in FIG. 14.
as §2, §3

Ramos cell line = experiment: 96-hour CTG cytotoxicity assay on Ramos; assay type: cell-based; details: 96-hour CTG assay
Experimental: as §1, §2, §3

MEC-2 cell line = experiment: 96-hour CTG cytotoxicity assay on MEC-2; assay type: cell-based, human; details: 96-hour CTG assay
Experimental: as §1, §4, §2, §3

CC[C@H](C)[C@@H]1NC(=O)CNC(=O)[C@@H]2Cc3c([nH]c4cc(O)ccc34)[S+]([O-])C[C@@H](NC(=O)CNC1=O)C(=O)N[C@@H](CC(N)=O)C(=O)N1C[C@H](O)C[C@H]1C(=O)N[C@@H]([C@@H](C)[C@@H](O)CO)C(=O)N2 (stereo in doubt) [α-amanitin, reference compound]
Kd (RNA-polymerase II): 3 nM
Cytotoxic effect on Nalm-6 (in words) [1]: cytotoxic effects on all cell lines only in the millimolar range
Cytotoxic effect on Raji (in words) (Raji cell line): cytotoxic effects on all cell lines only in the millimolar range
Cytotoxic effect on MEC-1 (in words) (MEC-1 cell line): cytotoxic effects on all cell lines only in the millimolar range
Cytotoxic effect on Ramos (in words) (Ramos cell line): cytotoxic effects on all cell lines only in the millimolar range
Cytotoxic effect on MEC-2 (in words) (MEC-2 cell line): cytotoxic effects on all cell lines only in the millimolar range
